How the values were obtained:
[1] = biological target: T1, Arabidopsis thaliana BioDA variant enzymes (Arabidopsis thaliana, UniProt B0F481); assay: biochemical
T1 construct: with the predicted N-terminal mitochondrial transit peptide removed; 6xHis-tag (N); thrombin cleavage site (N); made in house; host or cells: E. coli BL21 (DE3) bioA
Experimental: (§1) These plasmids were then expressed in E. coli BL21 (DE3) bioA with 50 μg/mL kanamycin and 25 μg/mL chloramphenicol selection. Overnight cultures grown at 37° C. were used to inoculate 8×500 mL AIM in shake flasks at a ratio of 1:100. Cultures were grown at 37° C., 200 rpm for 3.5 hours and then overnight at 20° C. Cells were harvested by centrifugation for 30 minutes at 10 000 g. Cells were stored at −80° C. until extraction. 30 g of cell pellet from was thawed in 120 mL of IMAC buffer A (20 mM HEPES pH7.5, 25 mM imidazole, 500 mM sodium chloride, 0.15 mM pyridoxal phosphate, 0.5 mM TCEP, 1× complete Protease Inhibitor Tablet (Roche)). The resuspension was passed through a cell disrupter at 18 000 PSI and centrifuged at 50 000 g for 25 minutes at 4° C. The His-tagged BIO3-BIO1 protein was purified from the extract supernatant on an AKTA avant chromatography system (Cytiva) using a HisTrap FF column and eluted in IMAC buffer B ((20 mM HEPES pH7.5, 500 mM imidazole, 500 mM sodium chloride, 0.15 mM pyridoxal phosphate, 0.5 mM TCEP) followed by SEC using a HiLoad 26/60 Superdex200 column in SEC buffer (25 mM HEPES pH7.5, 150 mM sodium chloride, 0.15 mM pyridoxal phosphate, 0.5 mM TCEP). Protein concentration was measured and calculated using the absorbance at 280 nm. Extracts were diluted 1 in 4 and 10 uL was analysed by SDS PAGE.
(§2) To measure BIO3-BIO1 mutant enzyme activity in the presence of herbicide, herbicides were incubated with 20 μL of enzyme mix (100 mM EPPS pH 8.6, 0.1 mM pyridoxal phosphate, 0.1 mg/mL BSA, 50 nM BIO3-BIO1 enzyme) for 10 minutes at 20° C. in a well of a 96-well half-area black plate, followed by the addition of 20 μL of substrate mix (final concentration of 100 mM EPPS pH 8.6, 0.1 mM pyridoxal phosphate, 0.1 mg/mL BSA, 100 μM spermidine, 20 μM KAPA, 100 mM NaCO3) and further incubation for 75 minutes at 20° C. The reaction was terminated by the addition of 50 μL of derivatisation mix (final concentration of 250 mM borate NaOH pH 9.4, 3.6 mM o-phthalaldehyde, 7 mM β-mercaptoethanol, 17% (v/v) ethanol, 3.6% (v/v) methanol). The fluorescent product produced by the reaction of DAPA with o-phthalaldehyde and 7 mM β-mercaptoethanol was measured at 470 nm after excitation at 410 nm.
(§3) For IC50 calculations, appropriate dose responses of compounds L, M, B, K and G were used. Calculated percentage inhibitions were then input into GraphPad Prism 7 and IC50s calculated using the non-linear regression (vs. normalised response) equation.

[2] = biological target: T2, Arabidopsis thaliana BioDA variant enzymes (Arabidopsis thaliana, UniProt B0F481, C388D); assay: biochemical
T2 construct: with the predicted N-terminal mitochondrial transit peptide removed; 6xHis-tag (N); thrombin cleavage site (N); made in house; host or cells: E. coli BL21 (DE3) bioA
Experimental: as §1, §2, §3

T2 sequence (B0F481 24-833 C388D): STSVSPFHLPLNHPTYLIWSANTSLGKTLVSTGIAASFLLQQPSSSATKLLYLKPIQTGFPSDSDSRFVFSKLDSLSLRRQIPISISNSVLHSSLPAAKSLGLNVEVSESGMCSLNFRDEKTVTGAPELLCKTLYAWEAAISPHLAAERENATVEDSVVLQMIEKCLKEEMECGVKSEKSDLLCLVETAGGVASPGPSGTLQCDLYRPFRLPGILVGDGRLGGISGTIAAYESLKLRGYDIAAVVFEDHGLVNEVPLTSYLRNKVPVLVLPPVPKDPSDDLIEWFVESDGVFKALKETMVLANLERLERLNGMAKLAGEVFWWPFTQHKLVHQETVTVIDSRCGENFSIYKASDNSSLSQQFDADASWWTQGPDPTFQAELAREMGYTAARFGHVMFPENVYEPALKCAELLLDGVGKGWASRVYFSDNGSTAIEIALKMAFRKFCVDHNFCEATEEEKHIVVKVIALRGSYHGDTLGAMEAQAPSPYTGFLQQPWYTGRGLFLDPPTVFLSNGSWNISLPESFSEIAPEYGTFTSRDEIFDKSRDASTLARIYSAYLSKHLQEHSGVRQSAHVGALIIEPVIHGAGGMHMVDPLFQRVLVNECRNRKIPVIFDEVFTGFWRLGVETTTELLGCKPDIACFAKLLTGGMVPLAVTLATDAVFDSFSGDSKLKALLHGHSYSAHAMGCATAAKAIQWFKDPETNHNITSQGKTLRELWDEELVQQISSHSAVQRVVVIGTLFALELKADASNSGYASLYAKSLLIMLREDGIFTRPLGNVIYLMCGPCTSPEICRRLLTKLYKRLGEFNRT

| Structure (SMILES) | IC50 [1] [µM] | IC50 [2] [µM] |
| --- | --- | --- |
| O=C(O)CC1CCC(=O)N1Cc1cccc(F)c1F (stereo not shown) [Compound G, 2-[1-[(2,3-difluorophenyl)methyl]-5-oxo-pyrrolidin-2-yl]acetic acid] | 89 | 361 |
| O=C(O)CC1CCC(=O)N1Cc1ccc(F)c(F)c1F (stereo not shown) [Compound K, 2-[5-oxo-1-[(2,3,4-trifluorophenyl)methyl]pyrrolidin-2-yl]acetic acid] | 25 | 386 |

— patent US20260226493A1, “HERBICIDE RESISTANT PLANTS” (SYNGENTA CROP PROTECTION AG, priority 2023, published 2026)
